In US20260007681A1, “INDOLE DERIVATIVES AS ESTROGEN RECEPTOR DEGRADERS” (REGENTS OF THE UNIVERSITY OF MICHIGAN, priority 2022, published 2026):

How the values were obtained:
ER = ER (Homo sapiens (Human), UniProt P03372); assay: In-cell western blot analysis of relative ER percentage (Compounds B1-B278); assay type: cell-based; conditions: ER degradation, 16 hours, read-out: ICW DC50
Experimental: In-cell western blot analysis. Cells are seeded in multi-well plates (e.g., at 40,000 or 10,000 cells/well). Diluted compounds at certain concentration are added (final 0.5% DMSO) and cells are incubated for […] (e.g., 16 hours). Formaldehyde (e.g., PBS:FA=9:1) is added and followed by washing with PBS. The cells are blocked with Licor blocking buffer (Li-Cor). The relative ER percentage in treated cells are obtained by comparing the values of treated wells to those in untreated and DMSO-treated wells as 100%.
In-cell western blot analysis. a. seed cells in black-sided/clear bottom 96- or 384-well plates at 40,000 or 10,000 cells/well, overnight; b. add diluted compounds (final 0.5% DMSO), 16 hours. 16 h later, remove medium, add 100 μL or 25 μL of 3.7-4.0% formaldehyde (PBS:FA=9:1), RT 20 min, no shaking; c. wash with PBS, and permeabilized with 100 μL or 25 μL/well of 1×PBS+0.1% Triton X-100 10 minutes; d. block with 100 μL or 25 μL Licor blocking buffer (Li-Cor), RT 1 h, moderate shaking; d. Add 100 μL or 25 μL of anti-ER (cs-8644, 1:500-1,000)+GAPDH(Millipore MAB374, 1:1000) in Block+0.05% Tween 20. RT 2 h, gentle shaking. Negative control: cells plus secondary antibodies (no primary antibodies); e. wash×4 with PBS +0.05-0.1% Tween 20, gentel shaking; f. anti-rabbit-680 and anti-mouse-800 (both 1:1000 in LiCor block +0.05% Tween20, RT 1 h, gentle shaking, no light. LI-COR: 0.2% to reduce background; g. wash×4 with PBS+0.05% Tween 20, gental shaking; h. add 100 μL or 25 μL of PBS to each well and read on CLX plate reader. The relative ER percentage in treated cells were obtained by comparing the values of treated wells to those in untreated and DMSO-treated wells as 100%.

[1] = Cell growth assay (WST-8) (Compounds B1-B278); assay type: cell-based; conditions: 96 h; T47D cell line; WST-8, 4 days; read-out: Cell Growth Inhibition in T47D cell line IC50
Experimental: Cell Growth Assay. The cells are seeded at certain concentration (e.g., at 1500/well) in multi-well plates overnight. Cells are subsequently treated with the compounds. A certain period of time (e.g., 4 days) after the compound treatment, 10% WST-8 reagent is added to the culture medium and incubate under certain condiction (e.g., in a CO2 incubator at 37° C. for 2.5 hours). The absorbance is measured on each sample using a microplate reader at certain wavelength (e.g., 450 nm). The relative absorbance is calculated against the vehicle control from three individually repeats.
Cell Growth Assay. The cells were seeded at 1500/well in 96 well plates overnight. One day after the seeding, they were treated with indicated doses of compounds respectively. 4 days after the compound treatment, 10% WST-8 reagent was added to the culture medium and incubate in a CO2 incubator at 37° C. for 2.5 hours. Before reading, the plate was mixed gently on an orbital shaker for one minute to ensure homogeneous distribution of color. The absorbance was measured of each sample using a microplate reader at a wavelength of 450 nm. The relative absorbance was calculated against the vehicle control from three individually repeats.

Chain of ER (P03372 whole entry): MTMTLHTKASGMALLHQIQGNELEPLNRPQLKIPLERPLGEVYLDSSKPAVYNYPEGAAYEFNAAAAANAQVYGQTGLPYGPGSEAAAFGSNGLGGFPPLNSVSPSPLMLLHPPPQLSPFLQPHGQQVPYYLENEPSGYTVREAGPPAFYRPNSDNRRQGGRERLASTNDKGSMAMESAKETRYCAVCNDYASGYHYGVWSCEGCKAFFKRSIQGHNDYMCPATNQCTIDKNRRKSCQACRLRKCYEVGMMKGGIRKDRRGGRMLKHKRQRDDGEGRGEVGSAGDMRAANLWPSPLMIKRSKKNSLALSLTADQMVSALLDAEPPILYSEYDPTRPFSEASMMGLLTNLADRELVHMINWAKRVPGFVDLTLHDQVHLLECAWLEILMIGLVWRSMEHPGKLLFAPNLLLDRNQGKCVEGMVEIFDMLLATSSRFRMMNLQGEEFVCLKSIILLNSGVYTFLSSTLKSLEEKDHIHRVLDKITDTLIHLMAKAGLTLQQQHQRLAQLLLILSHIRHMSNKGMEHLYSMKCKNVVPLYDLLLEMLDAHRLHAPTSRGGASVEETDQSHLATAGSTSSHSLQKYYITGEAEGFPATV

DC50 (ER) [nM] | SMILES | IC50 [1] [nM]
> 100 | C[C@@H]1Cc2c([nH]c3ccccc23)[C@@H](c2cnc(N3CCC4(CC(CN5CCN6c7ccc8c(c7OC[C@H]6C5)CN(C5CCC(=O)NC5=O)C8=O)C4)C3)nc2)N1CC(F)F (stereo partly drawn) [Compound B157, 3-((R)-7-((6-(5-((1R,3R)-2-(2,2-difluoroethyl)-3-methyl-2,3,4,9-tetrahydro-1H-pyrido[3,4-b]indol-1-yl)pyrimidin-2-yl)-6-azaspiro[3.4]octan-2-yl)methyl)-1-oxo-1,3,5,5a,6,7,8,9-octahydro-2H-pyrazino[1′,2′:4,5][1,4]oxazino[2,3-e]isoindol-2-yl)piperidine-2,6-dione] | 1 to 10
> 100 | C[C@@H]1Cc2c([nH]c3ccccc23)[C@@H](c2c(F)cc(N3CCC(CN4CCN5c6ccc7c(c6OC[C@H]5C4)CN(C4CCC(=O)NC4=O)C7=O)CC3)cc2F)N1CC(F)(F)CO (stereo partly drawn) [Compound B148, 3-((R)-7-((1-(4-((1R,3R)-2-(2,2-difluoro-3-hydroxypropyl)-3-methyl-2,3,4,9-tetrahydro-1H-pyrido[3,4-b]indol-1-yl)-3,5-difluorophenyl)piperidin-4-yl)methyl)-1-oxo-1,3,5,5a,6,7,8,9-octahydro-2H-pyrazino[1′,2′:4,5][1,4]oxazino[2,3-e]isoindol-2-yl)piperidine-2,6-dione] | < 1
10 to 100 | C[C@@H]1Cc2c([nH]c3ccccc23)[C@@H](c2c(F)cc(N3CC[C@H](CN4CCN5c6ccc7c(c6OC[C@H]5C4)CN(C4CCC(=O)NC4=O)C7=O)C3)cc2F)N1CC(F)(F)CO (stereo partly drawn) [Compound B150, 3-((R)-7-(((R)-1-(4-((1R,3R)-2-(2,2-difluoro-3-hydroxypropyl)-3-methyl-2,3,4,9-tetrahydro-1H-pyrido[3,4-b]indol-1-yl)-3,5-difluorophenyl)pyrrolidin-3-yl)methyl)-1-oxo-1,3,5,5a,6,7,8,9-octahydro-2H-pyrazino[1′,2′:4,5][1,4]oxazino[2,3-e]isoindol-2-yl)piperidine-2,6-dione] | 1 to 10
10 to 100 | C[C@@H]1Cc2c([nH]c3ccccc23)[C@@H](c2cnc(N3CC4(CCC(CN5CCN6c7ccc8c(c7OC[C@@H]6C5)CN(C5CCC(=O)NC5=O)C8=O)CC4)C3)nc2)N1CC(F)F (stereo partly drawn) [Compound B263, 3-((S)-7-((2-(5-((1R,3R)-2-(2,2-difluoroethyl)-3-methyl-2,3,4,9-tetrahydro-1H-pyrido[3,4-b]indol-1-yl)pyrimidin-2-yl)-2-azaspiro[3.5]nonan-7-yl)methyl)-1-oxo-1,3,5,5a,6,7,8,9-octahydro-2H-pyrazino[1′,2′:4,5][1,4]oxazino[2,3-e]isoindol-2-yl)piperidine-2,6-dione] | 1 to 10
10 to 100 | COc1cc(N2CCC3(CC2)OCC(CN2CCN4c5cc6c(cc5OC[C@H]4C2)C(=O)N(C2CCC(=O)NC2=O)C6)CO3)ccc1[C@@H]1c2[nH]c3ccccc3c2C[C@@H](C)N1CC(F)F (stereo partly drawn) [Compound B273, 3-((R)-3-((9-(4-((1R,3R)-2-(2,2-difluoroethyl)-3-methyl-2,3,4,9-tetrahydro-1H-pyrido[3,4-b]indol-1-yl)-3-methoxyphenyl)-1,5-dioxa-9-azaspiro [5.5]undecan-3-yl)methyl)-8-oxo-1,2,3,4,4a,5,8,10-octahydro-9H-pyrazino[1′,2′:4,5][1,4]oxazino[2,3-f]isoindol-9-yl)piperidine-2,6-dione] | 1 to 10
> 100 | C[C@@H]1Cc2c([nH]c3ccccc23)[C@@H](c2cnc(N3CCC4(CCC(N5CCN6c7ccc8c(c7OC[C@H]6C5)CN(C5CCC(=O)NC5=O)C8=O)CC4)CC3)nc2)N1CC(C)(C)F (stereo partly drawn) [Compound B164, 3-((R)-7-(3-(5-((1R,3R)-2-(2-fluoro-2-methylpropyl)-3-methyl-2,3,4,9-tetrahydro-1H-pyrido[3,4-b]indol-1-yl)pyrimidin-2-yl)-3-azaspiro[5.5]undecan-9-yl)-1-oxo-1,3,5,5a,6,7,8,9-octahydro-2H-pyrazino[1′,2′:4,5][1,4]oxazino[2,3-e]isoindol-2-yl)piperidine-2,6-dione] | 1 to 10
< 10 | C[C@@H]1Cc2c([nH]c3ccccc23)[C@@H](c2cnc(N3CCC4(CC3)CC(CN3CCN5c6ccc7c(c6OC[C@H]5C3)CN(C3CCC(=O)NC3=O)C7=O)CO4)nc2)N1CC(C)(C)F (stereo partly drawn) [Compound B168, 3-((5aR)-7-((8-(5-((1R,3R)-2-(2-fluoro-2-methylpropyl)-3-methyl-2,3,4,9-tetrahydro-1H-pyrido[3,4-b]indol-1-yl)pyrimidin-2-yl)-1-oxa-8-azaspiro[4.5]decan-3-yl)methyl)-1-oxo-1,3,5,5a,6,7,8,9-octahydro-2H-pyrazino[1′,2′:4,5][1,4]oxazino[2,3-e]isoindol-2-yl)piperidine-2,6-dione] | 1 to 10
10 to 100 | C[C@@H]1Cc2c([nH]c3ccccc23)[C@@H](c2cnc(N3CCC4(CC3)CC(N3CCN5c6ccc7c(c6OC[C@H]5C3)CN(C3CCC(=O)NC3=O)C7=O)CO4)nc2)N1CC(F)F (stereo partly drawn) [Compound B166, 3-((5aR)-7-(8-(5-((1R,3R)-2-(2,2-difluoroethyl)-3-methyl-2,3,4,9-tetrahydro-1H-pyrido[3,4-b]indol-1-yl)pyrimidin-2-yl)-1-oxa-8-azaspiro[4.5]dccan-3-yl)-1-oxo-1,3,5,5a,6,7,8,9-octahydro-2H-pyrazino[1′,2′:4,5][1,4]oxazino[2,3-e]isoindol-2-yl)piperidine-2,6-dione] | 1 to 10
10 to 100 | C[C@@H]1Cc2c([nH]c3ccccc23)[C@@H](c2cnc(N3CC4(CCC(CN5CCN6c7cc8c(cc7OC[C@@H]6C5)C(=O)N(C5CCC(=O)NC5=O)C8)CC4)C3)nc2)N1CC(F)F (stereo partly drawn) [Compound B120, 3-((S)-3-((2-(5-((1R,3R)-2-(2,2-difluoroethyl)-3-methyl-2,3,4,9-tetrahydro-1H-pyrido[3,4-b]indol-1-yl)pyrimidin-2-yl)-2-azaspiro[3.5]nonan-7-yl)methyl)-8-oxo-1,2,3,4,4a,5,8,10-octahydro-9H-pyrazino[1′,2′:4,5][1,4]oxazino[2,3-f]isoindol-9-yl)piperidine-2,6-dione] | 1 to 10
> 100 | C[C@@H]1Cc2c([nH]c3ccccc23)[C@@H](c2c(F)cc(N3CCN(CC(=O)N4CCN5c6ccc7c(c6OC[C@H]5C4)CN(C4CCC(=O)NC4=O)C7=O)CC3)cc2F)N1CC(F)F (stereo partly drawn) [Compound B152, 3-((R)-7-(2-(4-(4-((1R,3R)-2-(2,2-difluoroethyl)-3-methyl-2,3,4,9-tetrahydro-1H-pyrido[3,4-b]indol-1-yl)-3,5-difluorophenyl)piperazin-1-yl)acetyl)-1-oxo-1,3,5,5a,6,7,8,9-octahydro-2H-pyrazino[1′,2′:4,5][1,4]oxazino[2,3-e]isoindol-2-yl)piperidine-2,6-dione] | 
10 to 100 | C[C@@H]1Cc2c([nH]c3ccccc23)[C@@H](c2c(F)cc(N3CCC(C(=O)N4CCN5c6ccc7c(c6OC[C@H]5C4)CN(C4CCC(=O)NC4=O)C7=O)CC3)cc2F)N1CC(C)(F)F (mixture of isomers) [Compound B252, 3-((RS)-7-(1-(4-((1R,3R)-2-(2,2-difluoropropyl)-3-methyl-2,3,4,9-tetrahydro-1H-pyrido[3,4-b]indol-1-yl)-3,5-difluorophenyl)piperidine-4-carbonyl)-1-oxo-1,3,5,5a,6,7,8,9-octahydro-2H-pyrazino[1′,2′:4,5][1,4]oxazino[2,3-e]isoindol-2-yl)piperidine-2,6-dione] | 
10 to 100 | COc1cc(N2CCC3(CC2)CC(CN2CCN4c5ccc6c(c5OC[C@H]4C2)CN(C2CCC(=O)NC2=O)C6=O)CO3)ccc1[C@@H]1c2[nH]c3ccccc3c2C[C@@H](C)N1CC(C)(C)F (stereo partly drawn) [Compound B265, 3-((5aR)-7-((8-(4-((1R,3R)-2-(2-fluoro-2-methylpropyl)-3-methyl-2,3,4,9-tetrahydro-1H-pyrido[3,4-b]indol-1-yl)-3-methoxyphenyl)-1-oxa-8-azaspiro[4.5]decan-3-yl)methyl)-1-oxo-1,3,5,5a,6,7,8,9-octahydro-2H-pyrazino[1′,2′:4,5][1,4]oxazino[2,3-e]isoindol-2-yl)piperidine-2,6-dione] | 
